Assays:
dementia patients = assay: Retrospective clinical survey, MMSE change in dementia patients with first MMSE score less than or equal to 21; assay type: in vivo, human
Source text: Thus, it is not worth referring to these reports. It is assumed that a considerable degree of irreversible neurodegeneration has progressed in dementia patients, and in view of the action mechanism of the interstitial flow-improving agent, a sufficient therapeutic effect of the interstitial flow-improving agent might not be present for dementia patients. Thus, to evaluate the influence of consecutive oral administration of cilostazol on the cognitive function, a survey of consecutive cases (3183 cases in total) for which record of cilostazol administration between 1996 and 2012 exists was conducted, and examination was conducted by using all the cases matching the following conditions. In this study, to eliminate the influence of anti-dementia drugs, patients administered with anti-dementia drugs such as donepezil were removed from the analysis.
(i) The mini mental state exam (MMSE), which is a typical test of cognitive function, was conducted twice or more with an interval of 6 months or more (in a case where the MMSE was performed three or more times, two examination results of the first examination and the last examination were selected);
(ii) The first MMSE score was less than or equal to 21;
(iii) A case in which cilostazol was administered in a period at least more than a half of an MMSE observation period was selected as a group (hereinafter referred to as a treated group) subjected to consecutive treatment; and
(iv) A case in which cilostazol was administered in two months or less in an MMSE observation period was selected as a group (hereinafter referred to as an untreated group) not subjected to consecutive treatment.
(i) The rate of change in MMSE score in each group (calculation method: [last MMSE score−first MMSE score]/MMSE observation period [years]). In comparison between the two groups, statistical analysis was conducted such that the rate difference was obtained by using a chi-square test and other items were obtained by using a t test.

Tg-SwDI mice [1] = assay: Cerebral artery reactivity to CO2 supply (vascular pulsation driving force) in Tg-SwDI mice; assay type: in vivo; settings: vs ordinary feed group
Source text: In brain interstitial flow in a central nervous system, vascular wall motion caused by vascular pulsation of artery serves as a driving force so that harmful proteins are excreted (see Mechanisms to explain the reverse perivascular transport of solutes out of the brain. J Theor Biol. 2006 Feb. 21; 238(4): 962-74), Dilation of artery in vascular pulsation is caused by an increased blood pressure in artery due to pulsation of heart, and a decrease in dilation ability of artery attenuates vascular wall motion, and also reduces the interstitial flow. […] The degree of vascular elasticity in cerebral artery can be evaluated by using reactivity with a change in the concentration of blood carbon dioxide. Specifically, cerebral artery whose vascular elasticity and vascular pulsation driving force are maintained, has the ability of sufficiently dilating the vessel diameter afer an increase in the concentration of blood carbon dioxide, and maintains excretion ability for harmful proteins through h interstitial flow. On the other hand, cerebral artery whose vascular elasticity and vascular pulsation driving force are decreased, loses the ability of sufficiently dilating the vessel diameter in response to an increase in the concentration of blood carbon dioxide, and has its escretion ability for harmful proteins impaired. […]

Alzheimer's patients = settings: cilostazol alone in Alzheimer's patients, Non-patent Document 10; cited from earlier work
Tg-SwDI mice [2] = assay: Cerebrovascular diameter increase under acetylcholine administration to the brain surface; assay type: in vivo; settings: acetylcholine 100 μM perfused, vs ordinary feed
Source text: In the brain interstitial flow in a central nervous system, vascular wall motion due to artery vascular pulsation serves as a driving force so that harmful proteins are excreted. Dilation of artery in vascular pulsation occurs when the blood pressure in artery increases due to pulsation of heart. A decrease in dilation ability of artery attenuates vascular wall motion, and reduces the interstitial flow accordingly. In the presence of aged mice and cerebral amyloid angiopathy, vascular elasticity (flexibility) of cerebral artery considerably decreases, and vascular wall motion attenuates. Thus, the ability of excretion of harmful proteins deteriorates. In this study, the influence of cilostazol administration on vascular elasticity ability under acetylcholine administration was examined.
It is known that acetylcholine has the physiological action of improving vascular elasticity. […]
In a manner similar to section (1) regarding vascular elasticity enhancement by cilostazol discussed above, model mice (Tg-SwDI mice) (Davis et al, 2004) showing pathological changes, especially cerebral amyloid angiopathy, were used. […] Cerebral blood vessels were visualized with FITC-dextran, and the rate of change in vessel diameter from a time before administration to 3 minutes after the start of administration was analyzed. […]

O=C1CCc2cc(OCCCCc3nnnn3C3CCCCC3)ccc2N1 [cilostazol, 6-[4-(1-cyclohexyl-1H-tetrazole-5-yl)butoxy]3,4-dihydrocarbostyril]
rate of change in MMSE score (dementia patients; dementia treated group (19 cases), first MMSE less than or equal to 21, average±standard error, P value 0.21 vs untreated): 0.5±0.7 /year
therapeutic effects on dementia (dementia patients; first MMSE less than or equal to 21, treated vs untreated): no statistically significant therapeutic effects on dementia were observed
side effects leading to no consecutive cilostazol treatment (dementia patients; untreated group of dementia survey): side effects such as diarrhea and headaches
cerebral artery vasodilation ability with the CO2 supply (relative increase in cerebrovascular diameter) (Tg-SwDI mice [1]; 5% CO2, cilostazol-containing feed for 13.5 months, age 15 months, FIG. 5): significantly enhances cerebral artery vasodilation ability
cerebral artery vasodilation ability (relative increase rate of the vessel diameter) by the CO2 supply (Tg-SwDI mice [1]; cilostazol-containing feed for 8 months, age 12 months, FIG. 6): significantly increases the cerebral artery vasodilation ability
mini-mental state examination (MMSE) (Alzheimer's patients): no change is observed
relative increase in cerebrovascular diameter under acetylcholine administration (Tg-SwDI mice [2]; cilostazol-containing feed for 8 months, age 12 months, FIG. 23): dilated
relative increase in cerebrovascular diameter under acetylcholine administration (Tg-SwDI mice [2]; cilostazol-containing feed for 13.5 months, age 15 months, FIG. 24): dilated
